The source of these data is article PMC10517971, “An inverse agonist of orphan receptor GPR61 acts by a G protein-competitive allosteric mechanism” (Nature Communications, 2023).

Usually pIC50 stands for the negative decadic logarithm of the IC50, by convention in mol/L. Low values mean a high IC50, high ones a low IC50.

pIC50: −log10 of the molar value.

In one assay the target is Human PDE3A1 (Homo sapiens, UniProt Q14432). The assay is described as follows: Phosphodiesterase Assay (SPA). It counts as biochemical. The method, then: (§1) 45 37 °C for 30 min (DAT) or 60 min (NET and SER T). The plate is transferred to the FLIPR Tetra®
(§2) 46 instrument and the fluorescence of each well was measured (Ex 470- 495 […]).
(§3) 47 The level of fluores cenc e measured dire ctly relates to the level of uptake of the dye labelled amine,
(§4) 48 with a reduction in levels being related to an inhibition of the respective transporter.
(§5) 49 Phosphodiesterase Assays
(§6) 50 The phosphodiesteras e (P DE) assays m easure the conversion of 3’, 5 ’ -[3H ] cAMP to 5’-[3H] AMP
(§7) 51 (for PDE 3A1 and 4D3) or 3’, 5’-[3H] cGMP to 5’-[3H] GMP (for 5A1) by the relevant PDE
(§8) 52 enzyme subtype. Yttrium silicate (YSi) scintillation proximity (SPA) beads bind selectively to 5’-
(§9) 53 [3H] AMP or 5’-[3H] GMP, with the magnitude of radioactive counts being directly related to
(§10) 54 PDE enzymatic activity. The ass ay was performed in white walled op aque b ottom 384-well plates.
(§11) 55 Test compound (1 µL) in dimethyl sulfoxide was added to each well. Enzyme solution was then
(§12) 56 added to each well in buffer (in mM: Trizma, 50 (pH7.5); MgCl2, 1.3 mM) containing Brij 35
(§13) 57 (0.01% (v/v)). Subsequently, 20 µL of 3’,5’-[3H] cGMP (125 nM) or 20 µL of 3’,5’-[3H] cAMP
(§14) 58 (50 nM) was added to each well to start the reaction and the plate was incubated for 30 min at
(§15) 59 25 °C. The reaction was terminated by the addition of 20 µL of PDE YSi SPA beads (Perkin Elmer,
(§16) 60 Waltham, MA). Followin g an additional 8 h incubation period the plates were read on a MicroBeta
(§17) 61 radioactive plat e counter (Perkin Elmer, Waltham, MA, USA) to determine radioactive counts per
(§18) 63 Bromodomain-Containing Protein 4 (BRD4) Binding Assay
(§19) 64 The BRD4 fluorescent polarization binding assay uses purified His-tagged BRD4 protein and its
(§20) 65 interaction with a Cy5 labelled small molecule probe that binds to the BRD4 site involved in the
(§21) 66 interaction with tetra-acetylated histone H4 peptide. In brief, the assay is performed in low volume

In another assay the target is Human PDE4D3 (Homo sapiens, UniProt Q08499). The assay is described as follows: Phosphodiesterase Assay (SPA). It counts as biochemical. The method, then: as §1, §2, §3, §4, §5, §6, §7, §8, §9, §10, §11, §12, §13, §14, §15, §16, §17, §18, §19, §20, §21
The next assay deals with Human PDE5A1 (Homo sapiens, UniProt O76074). The assay is described as follows: Phosphodiesterase Assay (SPA). The class given is biochemical. Here is the method: as §1, §2, §3, §4, §5, §6, §7, §8, §9, §10, §11, §12, §13, §14, §15, §16, §17, §18, §19, §20, §21
A further assay addresses BRD4 (Homo sapiens, UniProt O60885). The assay is described as follows: Bromodomain-Containing Protein 4 (BRD4) fluorescence polarization Binding Assay. Here is the method:
as §1, §2, §3, §4, §5, §6, §7, §8, §9, §10
55 Test compound (1 µL) in dimethyl sulfoxide was added to each well. Enzyme solution was then […]
60 Waltham, MA). Followin g an additional 8 h incubation period the plates were read on a MicroBeta […]
71 temperature fluorescence polarization measurements were made using an Envision plate reader […]
76 of the product color, measured at 405 nm, is proportionate to the enzyme activity in the sample. […]
81 read at the 20 min time point. […]
In general terms: Polarisation of emitted light reports the rotation of a fluorescent probe.

Sequence of Human PDE4D3 (Q08499 1-673 isoform Q08499-2): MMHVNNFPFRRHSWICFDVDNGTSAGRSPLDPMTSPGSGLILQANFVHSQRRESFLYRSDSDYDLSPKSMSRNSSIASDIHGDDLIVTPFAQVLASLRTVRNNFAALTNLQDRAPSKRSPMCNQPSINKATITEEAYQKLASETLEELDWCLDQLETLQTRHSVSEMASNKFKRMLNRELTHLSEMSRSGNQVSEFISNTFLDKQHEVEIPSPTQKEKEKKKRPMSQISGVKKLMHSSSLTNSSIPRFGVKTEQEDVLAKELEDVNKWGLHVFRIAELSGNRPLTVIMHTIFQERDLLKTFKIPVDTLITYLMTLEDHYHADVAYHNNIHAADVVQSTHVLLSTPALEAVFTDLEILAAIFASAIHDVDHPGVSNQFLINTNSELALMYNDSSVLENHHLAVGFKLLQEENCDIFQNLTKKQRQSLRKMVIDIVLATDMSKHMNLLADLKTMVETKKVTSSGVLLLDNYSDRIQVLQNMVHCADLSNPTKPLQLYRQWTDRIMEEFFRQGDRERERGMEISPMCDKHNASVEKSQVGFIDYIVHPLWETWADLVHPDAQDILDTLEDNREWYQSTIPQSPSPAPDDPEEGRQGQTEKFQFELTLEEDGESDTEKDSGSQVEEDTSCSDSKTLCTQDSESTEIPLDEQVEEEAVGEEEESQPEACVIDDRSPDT
Sequence of Human PDE3A1 (Q14432 whole entry): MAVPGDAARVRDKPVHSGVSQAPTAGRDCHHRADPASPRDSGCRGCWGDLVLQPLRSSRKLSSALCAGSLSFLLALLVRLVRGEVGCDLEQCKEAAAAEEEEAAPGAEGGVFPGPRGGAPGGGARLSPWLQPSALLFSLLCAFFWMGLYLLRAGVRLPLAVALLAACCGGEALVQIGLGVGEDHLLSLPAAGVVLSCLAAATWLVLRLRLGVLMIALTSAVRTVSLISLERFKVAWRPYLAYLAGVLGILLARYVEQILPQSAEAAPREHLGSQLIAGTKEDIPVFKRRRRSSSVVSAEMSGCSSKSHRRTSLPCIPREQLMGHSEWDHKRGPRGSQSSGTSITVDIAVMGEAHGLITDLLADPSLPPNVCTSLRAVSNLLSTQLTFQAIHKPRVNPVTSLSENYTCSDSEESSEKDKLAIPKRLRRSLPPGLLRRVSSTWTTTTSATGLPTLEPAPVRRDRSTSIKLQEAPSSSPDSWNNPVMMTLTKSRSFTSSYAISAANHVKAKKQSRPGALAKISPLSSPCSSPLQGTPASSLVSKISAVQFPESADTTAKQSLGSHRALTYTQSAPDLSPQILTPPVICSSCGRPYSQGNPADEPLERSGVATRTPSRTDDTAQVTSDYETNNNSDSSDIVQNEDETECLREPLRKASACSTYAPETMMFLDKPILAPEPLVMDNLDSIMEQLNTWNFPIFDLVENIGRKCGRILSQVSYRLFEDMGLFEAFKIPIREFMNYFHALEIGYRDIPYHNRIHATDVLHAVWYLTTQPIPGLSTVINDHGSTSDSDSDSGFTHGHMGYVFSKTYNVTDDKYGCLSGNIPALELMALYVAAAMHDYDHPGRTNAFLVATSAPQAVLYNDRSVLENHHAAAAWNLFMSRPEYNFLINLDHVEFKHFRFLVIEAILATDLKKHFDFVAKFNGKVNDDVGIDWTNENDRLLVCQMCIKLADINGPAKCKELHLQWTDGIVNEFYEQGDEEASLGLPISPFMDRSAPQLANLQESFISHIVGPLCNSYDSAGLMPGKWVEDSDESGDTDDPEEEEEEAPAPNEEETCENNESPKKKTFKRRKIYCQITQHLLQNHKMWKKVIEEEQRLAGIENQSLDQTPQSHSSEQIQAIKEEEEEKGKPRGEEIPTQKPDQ

In the case of `CCOc1cc(C)nc(N(CCOC)S(=O)(=O)c2ccc(NCc3c(F)cncc3F)nc2OC)n1` [Compound 1], the pIC50 on Human PDE3A1 is 4.74; against Human PDE4D3 it was below 4.46; on Human PDE5A1, 3.81; on BRD4, below 4.60.
